According to patent publication US20220213126A1, “SMALL MOLECULE AUTOPHAGY INDUCERS FOR THE TREATMENT OF CANCER AND NEURODEGENERATIVE DISEASES” (John Wayne Cancer Institute, priority 2019, published 2022):
Values joined by “and” are separate entries in the source; they are usually repeats but may differ in a detail not shown here. Identical values can stand only once.

Columns and labels:
[1] = Pharmacokinetics of BC-4 and BC-5 in mouse plasma and brain; format: in vivo; settings: Balb/c mice, single oral dose 5 mg/kg
Procedure: Pharmacokinetics of BC-4 and BC-5 were compared to BC-1. Pharmacokinetics were assessed in Balb/c mice administered a single oral dose of 5 mg/kg of the indicated compound (Tables 11 and 12).

[2] = Pharmacokinetics of BC-2 and BC-3 in mouse plasma and brain; format: in vivo, mice
Procedure: Pharmacokinetics were assessed in mice administered a single oral dose of 5 mg/kg of the indicated compound (Tables 9 and 10).

[3] = system: GBM4; assay: GBM cell viability, Alamar blue, 72 hours; format: cell-based; settings: GBM4, patient-derived cell line
Procedure: (§1) The effect of VMY-BC-1 was tested on a panel of GBM cell lines. […] In this study 100 μM was the highest drug concentration used, with 3-fold dilution for a 10 dose response curve.

[4] = system: GBM8; assay: GBM cell viability, Alamar blue, 72 hours; format: cell-based; settings: GBM8, patient-derived cell line
Procedure: as §1

[5] = system: GL261; assay: GBM cell viability, Alamar blue, 72 hours; format: cell-based; settings: Mus musculus, GL261, established glioma cell line
Procedure: as §1

[6] = system: U251; assay: GBM cell viability, Alamar blue, 72 hours; format: cell-based; settings: Homo sapiens, U-251, U251, established glioma cell line
Procedure: as §1

[7] = system: U87; assay: GBM cell viability, Alamar blue, 72 hours; format: cell-based; settings: Homo sapiens, U-87 MG, U87, established glioma cell line
Procedure: as §1

[8] = Brain, single oral dose 5 mg/kg
[9] = Plasma, single oral dose 5 mg/kg
[10] = single oral dose 5 mg/kg, 0 min
[11] = single oral dose 5 mg/kg, 30 min
[12] = single oral dose 5 mg/kg, 60 min
[13] = single oral dose 5 mg/kg, 180 min
[14] = single oral dose 5 mg/kg, 360 min
[15] = single oral dose 5 mg/kg, 900 min
[16] = single oral dose 5 mg/kg, 1440 min

CC=C(c1ccc(OC)cc1)C(CC)c1cc(OC)cc(B(O)O)c1 (racemic) [BC-4]
Concentrations in plasma vs brain [1]: higher concentrations in plasma than brain | Brain level, Mean (4) ± SE ([1]; 0 min): BQL | Plasma level, Mean (4) ± SE ([1]; 0 min): BQL | Brain level, Mean (4) ± SE ([1]; 30 min): 164 ± 16 ng/g | Plasma level, Mean (4) ± SE ([1]; 30 min): 255 ± 20 ng,/ml | Brain level, Mean (4) ± SE ([1]; 60 min): 139 ± 14 ng/g | Plasma level, Mean (4) ± SE ([1]; 60 min): 163 ± 20 ng,/ml | Brain level, Mean (4) ± SE ([1]; 180 min): BQL | Plasma level, Mean (4) ± SE ([1]; 180 min): 36 ± 6 ng,/ml | Brain level, Mean (4) ± SE ([1]; 360 min): BQL | Plasma level, Mean (4) ± SE ([1]; 360 min): 22 ± 3 ng,/ml | Brain level, Mean (4) ± SE ([1]; 900 min): BQL | Plasma level, Mean (4) ± SE ([1]; 900 min): BQL | Brain level, Mean (4) ± SE ([1]; 1440 min): BQL | Plasma level, Mean (4) ± SE ([1]; 1440 min): BQL | Tmax ([1]; Brain): 30 min | T½ ([1]; Brain): 127 min | terminal elimination rate constant (lambda z) ([1]; Brain): 0.00546 min⁻¹ | AUC(0-t) ([1]; Plasma): 25300 ng·min/mL | AUC(inf) ([1]; Plasma): 28300 ng·min/mL | Cmax ([1]; Plasma): 255 ng/mL | Tmax ([1]; Plasma): 30 min | T½ ([1]; Plasma): 94.5 min | terminal elimination rate constant (lambda z) ([1]; Plasma): 0.00734 min⁻¹

CCOc1ccc(/C=C/c2cc(OC)cc(B(O)O)c2)cc1 [BC-2, (E)-(3-(4-ethoxystyryl)-5-methoxyphenyl) Boronic Acid]
AUC(0-inf) ([2]; mouse, in vivo, po, 5 mg/kg): 2000 ng·h/mL | AUC(inf) ([2]; mouse, in vivo, po, 5 mg/kg): 504000 ng·min/mL | Cmax ([2]; mouse, in vivo, po, 5 mg/kg): 841 ng/mL and 4140 ng/g | Concentration in brain vs plasma ([2]; mouse, in vivo, po, 5 mg/kg): higher concentration in brain than in plasma | Tmax ([2]; mouse, in vivo, po, 5 mg/kg): 60 min | T½ ([2]; mouse, in vivo, po, 5 mg/kg): 54.8 min | concentration at 30 min ([2]; mouse, in vivo, po, 5 mg/kg): 841 ng/mL and 3420 ng/g | concentration at 60 min ([2]; mouse, in vivo, po, 5 mg/kg): 732 ng/mL and 4140 ng/g | concentration at 180 min ([2]; mouse, in vivo, po, 5 mg/kg): 281 ng/mL and 983 ng/g | concentration at 360 min ([2]; mouse, in vivo, po, 5 mg/kg): 43 ng/mL and 94 ng/g | Tmax ([2]; mouse, in vivo, po, 5 mg/kg, Tmax): 30 min | half-life ([2]; mouse, in vivo, po, 5 mg/kg, T½): 72.8 min

COc1cc(/C=C/c2ccc(F)cc2)cc(B(O)O)c1 [BC-3]
Kd (Lambda Z) [2, 8]: 0.000342 s⁻¹ | Tmax [2, 8]: 30 min | T½ [2, 8]: 33.8 min | AUC(0-t) [2, 9]: 25500 ng·min/mL | AUC(inf) [2, 9]: 26300 ng·min/mL | Cmax [2, 9]: 439 ng/mL | Kd (Lambda Z) [2, 9]: 0.000358 s⁻¹ | Tmax [2, 9]: 30 min | T½ [2, 9]: 32.3 min | Concentration in brain vs plasma ([2]; single oral dose 5 mg/kg): higher concentration in brain than in plasma | Brain level, Mean (4) ± SE [2, 10]: BQL | Plasma level, Mean (4) ± SE [2, 10]: BQL | Brain level, Mean (4) ± SE [2, 11]: 1951 ± 323 ng/g | Plasma level, Mean (4) ± SE [2, 11]: 439 ± 67 ng/mL | Brain level, Mean (4) ± SE [2, 12]: 1233 ± 219 ng/g | Plasma level, Mean (4) ± SE [2, 12]: 217 ± 28 ng/mL | Brain level, Mean (4) ± SE [2, 13]: 95 ± 26 ng/g | Plasma level, Mean (4) ± SE [2, 13]: 17 ± 10 ng/mL | Brain level, Mean (4) ± SE [2, 14]: BQL | Plasma level, Mean (4) ± SE [2, 14]: BQL | Brain level, Mean (4) ± SE [2, 15]: BQL | Plasma level, Mean (4) ± SE [2, 15]: BQL | Brain level, Mean (4) ± SE [2, 16]: BQL | Plasma level, Mean (4) ± SE [2, 16]: BQL

CCC(=C(c1ccccc1)c1ccc(OC)cc1)c1cc(OC)cc(B(O)O)c1 [BC-5]
Concentrations in plasma vs brain [1]: higher concentrations in plasma than brain | Brain level, Mean (4) ± SE ([1]; 0 min): BQL | Plasma level, Mean (4) ± SE ([1]; 0 min): BQL | Brain level, Mean (4) ± SE ([1]; 30 min): 142 ± 32 ng/g | Plasma level, Mean (4) ± SE ([1]; 30 min): 1599 ± 40 ng,/ml | Brain level, Mean (4) ± SE ([1]; 60 min): 205 ± 39 ng/g | Plasma level, Mean (4) ± SE ([1]; 60 min): 1524 ± 106 ng,/ml | Brain level, Mean (4) ± SE ([1]; 180 min): 105 ± 26 ng/g | Plasma level, Mean (4) ± SE ([1]; 180 min): 742 ± 91 ng,/ml | Brain level, Mean (4) ± SE ([1]; 360 min): 28 ± 6 ng/g | Plasma level, Mean (4) ± SE ([1]; 360 min): 290 ± 35 ng,/ml | Brain level, Mean (4) ± SE ([1]; 900 min): BQL | Plasma level, Mean (4) ± SE ([1]; 900 min): 49 ± 10 ng,/ml | Brain level, Mean (4) ± SE ([1]; 1440 min): BQL | Plasma level, Mean (4) ± SE ([1]; 1440 min): 15 ± 9 ng,/ml | Tmax ([1]; Brain): 60 min | T½ ([1]; Brain): 103 min | terminal elimination rate constant (lambda z) ([1]; Brain): 0.00672 min⁻¹ | AUC(0-t) ([1]; Plasma): 376000 ng·min/mL | AUC(inf) ([1]; Plasma): 381000 ng·min/mL | Cmax ([1]; Plasma): 1600 ng/mL | Tmax ([1]; Plasma): 30 min | T½ ([1]; Plasma): 251 min | terminal elimination rate constant (lambda z) ([1]; Plasma): 0.00276 min⁻¹

Oc1ccc(C=Cc2cc(O)cc(O)c2)cc1 [Resveratrol, resveratrol, reference compound]
IC50 [3]: 40.6 µM | IC50 [4]: 26.6 µM | IC50 [5]: 10.6 µM | IC50 [6]: 12 µM | IC50 [7]: 40 µM | Drug level in plasma and brain, all time points ([2]; single oral dose 5 mg/kg): below quantification level | Brain level, Mean (4) ± SE [2, 10]: BQL | Plasma level, Mean (4) ± SE [2, 10]: BQL | Brain level, Mean (4) ± SE [2, 11]: BQL | Plasma level, Mean (4) ± SE [2, 11]: BQL | Brain level, Mean (4) ± SE [2, 12]: BQL | Plasma level, Mean (4) ± SE [2, 12]: BQL | Brain level, Mean (4) ± SE [2, 13]: BQL | Plasma level, Mean (4) ± SE [2, 13]: BQL | Brain level, Mean (4) ± SE [2, 14]: BQL | Plasma level, Mean (4) ± SE [2, 14]: BQL | Brain level, Mean (4) ± SE [2, 15]: BQL | Plasma level, Mean (4) ± SE [2, 15]: BQL | Brain level, Mean (4) ± SE [2, 16]: BQL | Plasma level, Mean (4) ± SE [2, 16]: BQL
